Test results: paper PMC4798879 (Nature chemical biology, 2016)

Legend:
H2122 cells = assay: Compound stability in cell lines, H2122; assay type: in vitro ADME, human
[1] = tested on: panel of 12 NSCLC cell lines; assay: Concentration-response toxicity across panel of NSCLC cell lines; assay type: cell-based, human
[2] = Body weight loss in xenograft experiments; assay type: in vivo, mouse; settings: once daily dosing
[3] = Pharmacokinetic studies in CD-1 mice; assay type: in vivo, mouse; settings: 6 and 20 mg/kg
sebocytes = assay: In vivo toxicity study, sebocytes in skin of CD-1 mice; parameters: species or system mouse; settings: 20 mg/kg once a day for two weeks
H2122 derived tumors = assay: Xenograft experiment, H2122 derived tumors in Nod-Scid mice; assay type: in vivo, mouse; settings: 20 mg/kg once daily
H2122 = assay: Compound concentration response, viability; assay type: cell-based, human; settings: read-out: IC50 (concentration that resulted in 50% less viability); H2122 cells

**Q.** Which results are given for `CCCCc1ccc(N=CNO)c(C)c1` [HET0016]?
**A.** effect on SW208108 metabolism (H2122 cells): inhibited both the loss of SW208108 and the generation of dMe-SW208108; effect on binding of SW208108 to SCD (SCD (p37 and p30); H2122, 0.1 µM SW208108): inhibited the binding of SW208108 to SCD in a dose dependent fashion; effect on ability of dMe-SW208108 to bind SCD (SCD (p37 and p30); H2122, 0.1 µM dMe-SW208108): no effect

**Q.** For `COc1ccc(CCNC(=O)C(=O)Nc2ccc(Cl)cc2)cc1` [SW027951], which “toxicity in eight of the remaining ten cell lines” value ([1]; 6 μM) is on record?
**A.** insensitive

**Q.** And the “toxicity in HCC44 and HCC95” value ([1]; HCC44 and HCC95 cell lines)?
**A.** intermediate toxicity

**Q.** For `O=C(NCCC1CC1)c1ccc(N2CCN(C(=O)c3cc(F)ccc3C(F)(F)F)CC2)nn1` [Xenon-45], which Weight loss [2] is on record?
**A.** up to 7%

**Q.** What about the pharmacokinetic properties [3] of the same compound?
**A.** favorable pharmacokinetic properties

**Q.** What about the “sebocytes in hair follicles of skin” value (sebocytes) of the same compound?
**A.** devoid of sebocytes

**Q.** And the “growth of H2122 tumors” value (H2122 derived tumors)?
**A.** no efficacy

**Q.** And the IC50 (H2122)?
**A.** 95 nM
